Test results taken from patent US20150351390A1, “COMPOSITIONS AND METHODS FOR AUXIN-ANALOG CONJUGATION” (PIONEER HI-BRED INTERNATIONAL, INC., priority 2012, published 2015).

Key:
Soybean seeds = assay: Phytotoxicity evaluation during soybean germination; type: in vivo; settings: 1 μM in germination media, 10 days
Experimental: To evaluate the effect of synthetic auxin conjugates in plants, 2,4-D-Asp, 2,4-D-Glu, dicamba-Asp, and dicamba-Glu were synthesized (Irvine Chemistry Laboratory, Anaheim, Calif.) and tested for auxin effects during soybean germination.
Asp and Glu conjugates of 2,4-D and dicamba were dissolved in a small quantity of Na2CO3 and ethanol, respectively, diluted in ddH2O to obtain 10 mM stock solution, and filter sterilized. Soybean seeds of a Pioneer elite germplasm were sterilized with chlorine gas as following: a) two layers of seeds were placed in a 100×25 mm plastic Petri dish; b) in an exhaust fume hood, seeds were placed into a glass desiccator with a 250 mL beaker containing 100 mL bleach (5% NaOC1) and 3.5 mL 12N HCl was slowly added to the beaker; c) the lid was sealed closed on the desiccator and the seeds sterilized for at least 24 hr.
Sterilized soybean seeds were then imbibed in ddH2O under sterile conditions at 25° C. for 24 hours before germination test. For germination test, 6-8 imbibed seeds were placed on a 100×25 mm deep Petri dish plate containing 50 ml germination media supplemented with or without auxin herbicide conjugates. 1 L seed germination media contains 3.21 g GAMBORG B-5 basal medium (PhytoTech), 20 g sucrose, 5 g tissue culture agar, and is pH adjusted to 5.7. Media was autoclaved at 121° C. for 25 min and cooled to 60° C. before the addition of auxin conjugates. Germination was carried out in a Percival growth chamber at 25° C. under 18 hr light and 6 hr dark cycle at 90 to 150 μE/m2/s and grown for 10 days.

soybean seedlings = assay: Soybean seedling response to spot infiltrated auxins and conjugates; type: in vivo; design: 1st trifoliate leaf curl / Epinasty score: scale not given here; settings: for 1st trifoliate leaf curl / Epinasty score / Chlorotic lesion @ app. Pnt: spot infiltration; for Plant response phenotype, soybean: result in words
Experimental: Conjugate forms of auxinic compounds when applied through spot infiltration, a needleless method to introduce exogenous agents into plant cells. Initially, various concentrations of analytical grade (98%+pure) IAA, 2,4-D, and dicamba were prepared as solutions that were applied directly to uni-foliate leaves of 9 day old soybean seedlings by spot infiltration in order to determine the range of auxinic response and severity.
Spot infiltration comprises applying a compound to be tested in composition that is applied to the surface of a plant, for example, to a leaf or other plant structure. For example, a method for testing a plant response to one or more compounds using spot infiltration comprises a) providing a composition comprising one or more compounds to be tested in a container having at least an opening for the compound enter and/or exit, and one or more elements for moving the composition into or out of the container; b) contacting at least one opening of the container with the surface of a plant and moving the composition comprising one or more compounds to at least the surface of the plant. A container and elements for moving the composition may comprise a syringe body and plunger. Moving the composition to the plant surface comprises contacting the surface with pressure sufficient for the composition to enter the cells of the plant. In an aspect, spot filtration testing comprises measuring an effect of the composition on the contacted plant and comparing that measure or effect to a plant that is not contacted with the composition.
Plant response phenotypes were documented at one day post-spot infiltration and subsequently every other day, up to nine days post treatment. […] In the studies described herein below, 5 replicate treatments for each conjugate form were conducted, along with appropriate negative controls.
(§1) Examples 9 and 10 utilized a spot infiltration method for the delivery of an herbicide directly to leaves of a plant. The method generally allows for the directed delivery of a variety of agents to a localized area of a plant, e.g. localized region of leaves, for screening or assessment purposes, e.g. to quickly assess the response of a plant to the agent. As used in the foregoing examples, the spot infiltration method was used to introduce specific herbicides or specific conjugates of the herbicides to seedling plant leaves. Following introduction of the herbicide or the appropriate conjugate, plants were observed daily for nine days for characteristics of epinasty, trifoliate leaf curly, chlorosis, and new growth recovery.
(§2) Briefly, a solution of the desired agent is prepared of the desired agent, e.g. as described above in Example 10, solutions (5% EtOH) of 1, 2.5 and 5 mM IAA. The solution is then drawn into a 1 mL BD™ slip-tip syringe, bulk, non-sterile syringe (e.g. Becton, Dickinson and Company, Product No. 301025) with 100 μL markings. The desired volume is then applied to the leaf, e.g. as described in Examples 9 and 10, with the tip of the syring against the leaf and positive pressure applied to the syringe plunger. Sufficient pressure is applied in order to infuse the area beneath the syringe opening, but not so much pressure as to cause a visible-to-the-eye puncture or hole to form in the leaf. Some run-off of solution around the syringe opening is expected. In the foregoing examples, two spots were applied to each of two leaves per seedling for soybean plants. […] In soybean, both spots per leaf were at the distal portion of the leaf about 1-2 cm apart. When the method was applied to Arabidopsis, two developmentally intermediate aged leaves were chosen per plant, and one spot infiltration was carried out per leaf.

[1] = system: Arabidopsis ecotype Col-0 plant; assay: Arabidopsis response to spot infiltrated auxins and conjugates; type: in vivo, Arabidopsis thaliana; settings: result in words
Experimental: The effect of auxin conjugates was assessed using Arabidoposis (Arabidopsis thialiana) ecotype Col-0 plant. Prior to studies utilizing the auxin conjugates, levels of analytical grade (98%+pure) IAA, 2,4-D and dicamba in solution were applied at various concentrations directly to developmentally similar leaves of 20-23 day old Arabidopsis seedlings by needleless syringe spot infiltration methodology, in order to determine range of auxinic response and severity. Phenotypes were documented relative to control at 1 day post-spot infiltration and subsequently every other day, up to nine days post treatment. Three concentrations were chosen based on reproducibility, and conjugated forms were then studied with 4 or more replicate treatments for each, along with appropriate negative controls (H2O and 10% EtOH).
as §1, §2
Generally, for Arabidopsis, the two leaves were chosen from opposite sides of rosette. In general, the spot infiltration method is carried out on younger plants in order to minimize experimental footprint and to maintain developmental uniformity. However, the method is not limited to use on young plants and can be easily applied to older plants as determined by the goals of a particular experiment.

[2] = LC-MS assay of GH3 conjugation of 2,4-D with Asp or Glu; type: biochemical; settings: LC-MS; for Detected auxin conjugates: 2,4-D-Asp: 2,4-D with Asp; for Detected auxin conjugates: 2,4-D-Glu: 2,4-D with Glu
In short: (§3)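 N-His-tagged GH3 homologs expressed in E. coli C41(DE3) and Ni-NTA purified (44 to 164 μg/mL) were incubated 3 hours at 30° C. in 20 mM Tris-HCl pH 8.0, 5 mM MgCl2, 1 mM DTT with 5 mM each of auxin, ATP and Asp or Glu. Conjugates were quantified by LC-MS against standards.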

[3] = LC-MS assay of GH3 conjugation of dicamba with Asp or Glu; type: biochemical; settings: LC-MS; for Detected auxin conjugates: Dicamba-Asp: dicamba with Asp; for Detected auxin conjugates: Dicamba-Glu: dicamba with Glu
In short: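 Dicamba–amino acid (Asp or Glu) conjugates formed by purified his-tagged GH3 enzymes were detected by LC-MS on an AB Sciex 4000 QTrap with Shimadzu Nexera UHPLC and a Phenomenex Luna 3 μm Phenyl-Hexyl column, after 20× dilution of the supernatant in water. Standards were used to quantify conjugates. Protein concentration was determined by Bradford assay.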

[4] = LC-MS assay of GH3 conjugation of IAA with Asp or Glu; type: biochemical; settings: LC-MS; for Detected auxin conjugates: IAA-Asp: IAA with Asp; for Detected auxin conjugates: IAA-Glu: IAA with Glu
In short: as §3

[5] = 1, 2.5 and 5 mM, all test levels

O=C(O)C[C@H](NC(=O)COc1ccc(Cl)cc1Cl)C(=O)O [2,4-D-Asp]
Soybean seed germination and growth (Soybean seeds): seed germination and growth were normal
1st trifoliate leaf curl (soybean seedlings; 100 μM): 0
1st trifoliate leaf curl (soybean seedlings; 250 μM): 0
1st trifoliate leaf curl (soybean seedlings; 500 μM): 0
Plant response phenotype, soybean (soybean seedlings; 100, 250 & 500 μM): auxinic response nearly equivalent to that of 2,4-D

O=C(O)CC[C@H](NC(=O)COc1ccc(Cl)cc1Cl)C(=O)O [2,4-D-Glu]
Soybean seed germination and growth (Soybean seeds): seed germination and growth were normal
1st trifoliate leaf curl (soybean seedlings; 100 μM): 0
Epinasty score (soybean seedlings; 100 μM): +/−
1st trifoliate leaf curl (soybean seedlings; 250 μM): 0
Epinasty score (soybean seedlings; 250 μM): +/−
1st trifoliate leaf curl (soybean seedlings; 500 μM): 0
Plant response phenotype, soybean (soybean seedlings; 500 μM): modest epinasty
Plant response phenotype, soybean (soybean seedlings; 100, 250 & 500 μM): distinctly lower level of severity
Plant response phenotype, soybean (soybean seedlings; lower concentration than 500 μM): no discernible auxinic responses

O=C(O)Cc1c[nH]c2ccccc12 [IAA, indole-3-acetic acid]
Phenotype, Arabidopsis ([1]; 5 mM (high dose), 1-2 days post treatment): modest petiole twisting (epinasty) and leaf curl
1st trifoliate leaf curl (soybean seedlings; 1.0 mM): 0
Chlorotic lesion @ app. Pnt (soybean seedlings; 1.0 mM): 0
1st trifoliate leaf curl (soybean seedlings; 2.5 mM): 0
Chlorotic lesion @ app. Pnt (soybean seedlings; 2.5 mM): 0
1st trifoliate leaf curl (soybean seedlings; 5.0 mM): 0
Chlorotic lesion @ app. Pnt (soybean seedlings; 5.0 mM): 0
Plant response phenotype, soybean (soybean seedlings; 1, 2.5 and 5 mM): modest stem twisting and bending (epinasty)

O=C(O)C[C@H](NC(=O)Cc1c[nH]c2ccccc12)C(=O)O [IAA-Asp]
Phenotype, Arabidopsis [1, 5]: No discernable phenotype
1st trifoliate leaf curl (soybean seedlings; 1.0 mM): 0
Chlorotic lesion @ app. Pnt (soybean seedlings; 1.0 mM): 0
Epinasty score (soybean seedlings; 1.0 mM): 0
1st trifoliate leaf curl (soybean seedlings; 2.5 mM): 0
Chlorotic lesion @ app. Pnt (soybean seedlings; 2.5 mM): 0
Epinasty score (soybean seedlings; 2.5 mM): 0
1st trifoliate leaf curl (soybean seedlings; 5.0 mM): 0
Chlorotic lesion @ app. Pnt (soybean seedlings; 5.0 mM): 0
Epinasty score (soybean seedlings; 5.0 mM): 0
Plant response phenotype, soybean (soybean seedlings; 1, 2.5 and 5 mM): No discernable phenotype

O=C(O)CC[C@H](NC(=O)Cc1c[nH]c2ccccc12)C(=O)O [IAA-Glu]
Phenotype, Arabidopsis [1, 5]: No discernable phenotype
1st trifoliate leaf curl (soybean seedlings; 1.0 mM): 0
Chlorotic lesion @ app. Pnt (soybean seedlings; 1.0 mM): 0
Epinasty score (soybean seedlings; 1.0 mM): 0
1st trifoliate leaf curl (soybean seedlings; 2.5 mM): 0
Chlorotic lesion @ app. Pnt (soybean seedlings; 2.5 mM): 0
Epinasty score (soybean seedlings; 2.5 mM): 0
1st trifoliate leaf curl (soybean seedlings; 5.0 mM): 0
Chlorotic lesion @ app. Pnt (soybean seedlings; 5.0 mM): 0
Epinasty score (soybean seedlings; 5.0 mM): 0
Plant response phenotype, soybean (soybean seedlings; 1, 2.5 and 5 mM): No discernable phenotype

B1: OsGH3-12: GH3 protein, accession Q53P49 (protein, listed as Oryza sativa)
chain: MLEKEGKLIMSREDEEIMAWFERTTRDAADVQRETLRRILAENAGVEYLRELGLAGLTDAGSFRARVPVVTHADLDPYIQRVADGDASPVLTAKPVTAISLSSGTTQGKRKRLLFNDDLLRSSIRFFHASYAFTNRAFPVEDGRVLQFMYGSRHETTKGGLTATTVMTNLLRSEEFTASMAARSRPRLPSCSPSEVVFSPDFDESLYCHLLCGLLLAGEVRAVSASFAHSIVVALQALERVWRELCADIRRGAASPARVTTPAVRRAVAPILAAPNPALADALERRCAALGDWSGVIPALWPNARYVQATMTGSMEHYVKKLRHYAGGVPLVSGNYASSEGVIGINAEQHAPPESVVFTVLPDAAYFEFIPLKPPCTDAAADDDNPAAAGSSCYVDADDANPVGLTDVVVGEHYEVVMTTFTGLYRYRLGDVVKVAGFHHATPKLRFVCRRSLILSINVDKNSEHDLQLAVDSAAKILAGDGENHKQLEIADYTSHADTSSDPGHYVVFWELNGGGEEDGGGVLQRCCDEMDRAFGADAGYAQSRKTCAIGALELRVLRRGAFQEVLRHYVAGGSSAGQFKMPRCVAPSNAGVLRVLKDNTINIFFSTAYDYD
Detected auxin conjugates: 2,4-D-Asp [2]: No
Detected auxin conjugates: 2,4-D-Glu [2]: No
Detected auxin conjugates: Dicamba-Asp [3]: No
Detected auxin conjugates: Dicamba-Glu [3]: No
Detected auxin conjugates: IAA-Asp [4]: No
Detected auxin conjugates: IAA-Glu [4]: No

B2: OsGH3-3: GH3 protein, accession EEE54131 (protein, listed as Oryza sativa)
chain: MLEKKATRSTRVDGVSGEAVIEEFERVTRDAANVQRETLRRILAENGGVEYLRGLGLAGATDPATFRARVPLATHADLEPYIDRIADGDASPVLTAKPATSISLSSGTTQGKRKYLLFNEELVKSTMQIYRISYAFRNREFPVENGKALQFIYSSRETRTKGGLTATTATTNVYRSEEFKATMRDIQSQCCSPDEVIFGPDFAQSLYCHLLAGLLAAGDVQIVSATFAHSVVLAFQTFERAWEDLCADIRRGEVSPSRVTSPAVRRAMAALLAAPNPGLADEVARKCAALSNWYGVIPALWPNARYVYGIMTGSMEHYVKKLRHYAGGLPLVAAEYGASEGWVGANVEPGTPPERATFTVLPDIAYFEFIPLKPVAGDGGYAEAEPVGLTEVAAGELYEVVMTTFAGLYRYRLGDVVKVAGFYNATPKLKFVCRRNLMLSINIDKNSEQDLQLAVDAAARAVLAGEKLEVVDYTSHADVSSDPGHYVVFLELNAADPAAVDGDVMQACCDELDRAFADAGYVGSRKSGAIAPLELRVLQRGTFQKVLRHYLSLGAPVSQFKSPRCVSRSNSGVLQILAGCTVNVFFSSAYD
Detected auxin conjugates: 2,4-D-Asp [2]: No
Detected auxin conjugates: 2,4-D-Glu [2]: No
Detected auxin conjugates: Dicamba-Asp [3]: No
Detected auxin conjugates: Dicamba-Glu [3]: No
Detected auxin conjugates: IAA-Asp [4]: Yes
Detected auxin conjugates: IAA-Glu [4]: No
